Experimental data as given in BigSolDB 2.1.

CCCSc1ccc2nc(NC(=O)OC)[nH]c2c1
solubility (mole fraction)
Conditions | 278.15 K | 283.15 K | 288.15 K | 293.15 K | 298.15 K | 303.15 K | 308.15 K | 313.15 K | 318.15 K | 323.15 K
in acetone | 0.00151 | 0.0018 | 0.00213 | 0.00254 | 0.00297 | 0.00344 | 0.00402 | 0.00463 | 0.00535 | 0.00613
in isopropanol | 0.000106 | 0.00013 | 0.000158 | 0.000192 | 0.000229 | 0.000276 | 0.00033 | 0.000388 | 0.000453 | 0.000532
in methanol | 8.85e-05 | 0.000109 | 0.000132 | 0.000159 | 0.000193 | 0.00023 | 0.000273 | 0.000327 | 0.000381 | 0.000448
in water | 1.59e-07 | 2.16e-07 | 2.9e-07 | 3.99e-07 | 5.31e-07 | 6.93e-07 | 9.18e-07 | 1.19e-06 | 1.56e-06 | 1.98e-06
